Measurements taken from PubChem BioAssay (NCI).
Several values for one entry are separate records, joined by “and”; a condition that tells them apart may be missing. Equal entries are not always repeated.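 Dose response: 5 concentrations. Exposure: 48 h. Format: 96-well plates. Endpoint: linear interpolation; highest concentration if not reached. GI50: concentration for 50% inhibition of growth. TGI: total growth inhibition.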

Columns and labels:
Assay in all cases: NCI tumour cell line growth inhibition, 48 h
[1] = system: A498 renal
[2] = system: A549 NSCLC
[3] = system: COLO 205 colon
[4] = system: HOP-62 NSCLC
[5] = system: LOX IMVI melanoma
[6] = system: MOLT-4 leukemia
[7] = system: NCI/ADR-RES ovarian
[8] = system: OVCAR-5 ovarian
[9] = system: SK-MEL-2 melanoma
[10] = system: UACC-257 melanoma

Compound | TGI [1] | TGI [2] | TGI [3] | TGI [4] | TGI [5] | TGI [6] | TGI [7] | TGI [8] | TGI [9] | TGI [10] | GI50 [1] | GI50 [2] | GI50 [3] | GI50 [4] | GI50 [5] | GI50 [6] | GI50 [7] | GI50 [8] | GI50 [9] | GI50 [10]
O=C(O)c1ccc(S(=O)(=O)N=Nc2c(O)[nH]c3ccccc23)cc1 | > 100 µM | > 100 µM | > 100 µM | > 100 µM | > 100 µM | > 100 µM | > 100 µM | > 100 µM | > 100 µM | > 100 µM |  |  |  |  |  |  |  |  |  | 
CCN(Cc1nc2cc(C(F)(F)F)ccc2nc1-c1ccccc1)c1ccc(OC)c(OC)c1 | 20.7 µM | 16.3 µM | > 100 µM | 29.1 µM | 27.2 µM | 52.1 µM | > 100 µM | 46 µM | 34.7 µM | 0.793 µM | 4.42 µM | 0.369 µM | 31.4 µM | 15.1 µM | 14.2 µM | 11.8 µM | 29.2 µM | 21.6 µM | 16.7 µM | 0.0249 µM
CCCC(=O)NC(c1ccc2c(c1)OCO2)c1ccc2cccnc2c1O (configuration not stated) | 12.6 µM | > 100 µM | > 100 µM | > 100 µM | > 100 µM | > 100 µM | 16.6 µM | > 100 µM | > 100 µM |  | 3.22 µM | 2.27 µM | 2.73 µM | 1.2 µM | 0.808 µM | 0.441 µM | 0.443 µM | 2.75 µM | 4.99 µM | 
CCCCCC(=O)OCC(=O)O[C@@H]1C[C@]2(C(C)C)O[C@@]1(C)[C@@H]1CC[C@@H](C)[C@H]1[C@@H]2OC(=O)/C=C/c1ccccc1 | 0.306 µM | > 100 µM | > 95.9 µM | > 100 µM | > 72.6 µM | > 100 µM | > 70.6 µM | > 100 µM | > 81 µM | > 89.2 µM | 0.0525 µM | > 60.3 µM | > 61.3 µM | > 74.6 µM | > 49.9 µM | > 45.5 µM | 0.291 µM | > 81.7 µM | > 58.2 µM | > 55.7 µM
CC1CCC2C(C)C3C(CC4C5CC=C6CC(OC7OC(CO)C(O)C(OC8OC(CO)C(O)C(O)C8O)C7OC7OC(C)C(O)C(O)C7O)CCC6(C)C5CCC43C)N2C1 (configuration not stated) | 31.7 µM and > 2.5 µg/mL | 16.7 µM and > 2.5 µg/mL | 33 µM and > 2.5 µg/mL | 32.2 µM and > 2.5 µg/mL | 29.7 µM and > 2.5 µg/mL | 60.9 µM and > 2.5 µg/mL | 34.8 µM and > 2.5 µg/mL | 28 µM and > 2.5 µg/mL | 34.8 µM and > 2.5 µg/mL | 33.2 µM and > 2.5 µg/mL | > 2.5 mg/L | > 2.5 mg/L | > 2.5 mg/L | > 2.5 mg/L | > 2.5 mg/L | > 2.5 mg/L | > 2.5 mg/L | > 2.5 mg/L | > 2.5 mg/L | > 2.5 mg/L
O=C1C=CN(C2OC(CO)C(O)C2O)C(=O)C1 (configuration not stated) | > 2500 µM | 625 µM and > 2500 µM | 625 µM and > 2500 µM | 625 µM and 1340 µM | 625 µM and 788 µM | 476 µM | 625 µM and > 2500 µM | > 2500 µM | 625 µM and > 2500 µM | > 1940 µM |  | 28.9 µM | 60.2 µM | 18.7 µM |  |  |  |  | 115 µM and 1040 µM | 
Oc1ccc(Br)cc1/C=N/NC(=S)NC12CC3CC(CC(C3)C1)C2 | 7.19 µM | 5.07 µM | 11.1 µM | 3.32 µM | 2.88 µM | 6.81 µM | 7.89 µM | 4.78 µM | 4.59 µM | 6.96 µM | 2.18 µM | 1.82 µM | 3.44 µM | 1.52 µM | 1.22 µM | 1.89 µM | 2.71 µM | 1.89 µM | 2.09 µM | 2.11 µM
NC(N)=N/N=C/c1cccc(Cl)c1Cl | 25.6 µM | 21.9 µM | 3.13 µM | 24.1 µM | 8.4 µM | 23.9 µM | 24 µM | 26.3 µM | 4.16 µM | 20.6 µM | 11.1 µM | 7.51 µM | 1.69 µM | 11.7 µM | 2.49 µM | 6.13 µM | 8.38 µM | 12.4 µM | 2.22 µM | 6.26 µM
CCOC(=O)c1c(C)n(CC(C)C)c2c1cc1oc(=O)c(=O)n3cnc2c13 | 41.3 µM | > 50 µM | > 50 µM | > 50 µM | 16 µM | > 50 µM | 38 µM | > 50 µM | > 50 µM | 30.5 µM | 14.2 µM | 15.7 µM | 20.7 µM | 35 µM | 8.45 µM | 15.8 µM | 11.6 µM | 29.6 µM | 38.7 µM | 11.3 µM
O=C(N=Nc1c(O)[nH]c2c(Cl)cc(Cl)cc12)c1ccncc1 | > 100 µM | > 100 µM | > 100 µM | 88.3 µM | 42.3 µM | > 100 µM | 69.4 µM | > 100 µM | 40.2 µM | 48.9 µM |  |  |  |  |  |  |  |  |  | 
CCOC(=O)CNC(=O)CCCn1c(=O)c2c3ccccc3n(C)c2n2nnc(-c3ccccc3)c12 | 24.6 µM | > 50 µM | > 50 µM | 17.7 µM | > 50 µM | > 50 µM | > 50 µM | > 50 µM | 29.1 µM | > 50 µM | 7.29 µM | 32.8 µM | > 50 µM | 5.88 µM | 25.1 µM | > 50 µM | > 50 µM | 27.7 µM | 9.46 µM | > 50 µM
CCCCCCCCCCCCOC1C(C(COC2OC(C(O)CN3CCCCC3)C3OC(C)(C)OC23)NC(=O)Nc2ccccc2)OC2OC(C)(C)OC21 (configuration not stated) | 32.7 µM | 38 µM | 16.8 µM | 32.9 µM | 26.1 µM | 5.54 µM | 33.3 µM | 34.3 µM | 41.6 µM | 38 µM | 16.9 µM | 11.4 µM | 3.86 µM | 16.1 µM | 7.87 µM | 1.29 µM | 15.3 µM | 18.5 µM | 19.6 µM | 19.3 µM
BrC(Br)(Br)c1cnc2ccccc2n1 | 21.2 µM | 4.66 µM | 2.13 µM | 7.9 µM | 2.19 µM | 8.54 µM | 7.36 µM | 7.45 µM | 7.4 µM | 6.48 µM | 9 µM | 1.75 µM | 0.735 µM | 2.27 µM | 0.425 µM | 2.46 µM | 2.3 µM | 2.77 µM | 2.72 µM | 2.02 µM
